Data set [1] is described as follows: AUC (infinity) in Sprague-Dawley rat at 10 mg/kg, iv administered as single dose by LC-MS/MS analysis. The class given is ADME, organism-based. Details: dose 10 mg/kg, time infinity, route intravenous. To be noted: in vivo.
The target in data set [2] is Serine/threonine-protein kinase NIM1 (Homo sapiens, UniProt Q8IY84). The experiment in a line: Inhibition of NIM1 (unknown origin) in presence of gamma33-ATP.
Data set [3] can be described thus: Antiproliferative activity against human SU-DHL1 cells expressing ALK protein incubated for 72 hrs by cell titer-glo assay. The class given is functional, cell-based. The settings on record: SU-DHL-1, 72 h.
The subject of data set [4] is NCI-H2228. The settings on record: Homo sapiens.
Description: Antitumor activity against human NCI-H2228 cells xenografted in athymic nu/nu mouse assessed as tumor growth inhibition at 30 to 60 mg/kg, po bid administered for 10 days
Data set [5] in a line: Cmax in Beagle dog at 10 mg/kg, po administered as single dose by LC-MS/MS analysis. The data set is classed as ADME, organism-based, Canis lupus familiaris. More on the design: dose 10 mg/kg, route oral. To be noted: in vivo.
Data set [6] in a line: Antiproliferative activity against human SUP-M2 cells expressing ALK protein incubated for 72 hrs by cell titer-glo assay. The settings on record: SUP-M2, 72 h. The class given is functional, cell-based.
In data set [7] the target is T1, 3-phosphoinositide-dependent protein kinase 1 (Homo sapiens, UniProt O15530).
T1 sequence (O15530 whole entry): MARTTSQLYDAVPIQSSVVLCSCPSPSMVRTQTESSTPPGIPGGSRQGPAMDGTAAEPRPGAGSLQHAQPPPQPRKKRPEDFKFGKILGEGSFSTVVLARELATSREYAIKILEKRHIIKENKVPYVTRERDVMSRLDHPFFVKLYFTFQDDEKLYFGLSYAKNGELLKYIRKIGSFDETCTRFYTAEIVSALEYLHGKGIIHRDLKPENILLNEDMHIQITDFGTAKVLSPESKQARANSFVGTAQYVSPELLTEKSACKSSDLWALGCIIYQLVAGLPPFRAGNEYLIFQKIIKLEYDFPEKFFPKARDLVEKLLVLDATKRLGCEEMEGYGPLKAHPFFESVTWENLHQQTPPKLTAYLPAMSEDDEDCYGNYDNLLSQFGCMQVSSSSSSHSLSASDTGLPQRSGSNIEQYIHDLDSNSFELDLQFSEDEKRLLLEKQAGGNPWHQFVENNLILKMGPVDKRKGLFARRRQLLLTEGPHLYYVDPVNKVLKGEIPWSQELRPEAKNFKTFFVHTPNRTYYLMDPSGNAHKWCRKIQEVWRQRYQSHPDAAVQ
The data set can be described thus: Inhibition of PDK1 (unknown origin) in presence of gamma33-ATP.

Data set [8] can be described thus: Plasma concentration in Harlan nu/nu mouse at 240 mg/kg, po administered per day for 2 weeks measured 6 hrs post last dose by LC-MS/MS analysis. The class given is ADME, organism-based.
The target in data set [9] is T2, Tyrosine-protein kinase JAK3 (Homo sapiens, UniProt P52333).
T2 sequence (P52333 whole entry): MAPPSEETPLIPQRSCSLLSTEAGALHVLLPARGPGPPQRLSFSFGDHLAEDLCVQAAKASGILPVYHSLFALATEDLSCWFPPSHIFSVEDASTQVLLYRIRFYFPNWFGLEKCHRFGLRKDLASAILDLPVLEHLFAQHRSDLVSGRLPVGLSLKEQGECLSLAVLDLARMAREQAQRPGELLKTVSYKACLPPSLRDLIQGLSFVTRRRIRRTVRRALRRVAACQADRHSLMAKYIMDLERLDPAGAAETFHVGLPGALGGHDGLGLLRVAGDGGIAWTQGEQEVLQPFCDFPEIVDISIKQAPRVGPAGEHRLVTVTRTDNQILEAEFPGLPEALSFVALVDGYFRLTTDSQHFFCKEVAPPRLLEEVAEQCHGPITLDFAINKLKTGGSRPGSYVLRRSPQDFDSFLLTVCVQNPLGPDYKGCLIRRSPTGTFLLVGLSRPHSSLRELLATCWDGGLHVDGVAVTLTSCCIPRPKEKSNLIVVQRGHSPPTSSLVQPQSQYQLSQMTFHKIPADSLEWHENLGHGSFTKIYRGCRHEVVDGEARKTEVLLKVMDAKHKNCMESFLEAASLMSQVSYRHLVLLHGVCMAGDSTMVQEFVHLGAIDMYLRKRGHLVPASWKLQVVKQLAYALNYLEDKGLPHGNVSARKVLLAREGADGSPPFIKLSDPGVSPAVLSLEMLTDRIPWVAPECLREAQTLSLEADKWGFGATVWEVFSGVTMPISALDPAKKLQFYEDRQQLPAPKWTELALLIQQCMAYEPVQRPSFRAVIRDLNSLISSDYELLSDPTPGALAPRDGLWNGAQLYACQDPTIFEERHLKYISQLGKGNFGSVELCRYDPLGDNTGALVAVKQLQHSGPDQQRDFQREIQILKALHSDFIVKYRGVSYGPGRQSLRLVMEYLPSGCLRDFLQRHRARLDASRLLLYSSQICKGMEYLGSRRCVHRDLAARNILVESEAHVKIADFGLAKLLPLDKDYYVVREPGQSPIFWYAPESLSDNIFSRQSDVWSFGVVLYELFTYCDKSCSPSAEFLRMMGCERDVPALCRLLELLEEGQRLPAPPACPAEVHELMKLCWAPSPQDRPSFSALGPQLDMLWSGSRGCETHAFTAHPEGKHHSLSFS
The data set can be described thus: Inhibition of JAK3 (unknown origin) in presence of gamma33-ATP.

For data set [10], the target named is T3, Tyrosine-protein kinase ZAP-70 (Homo sapiens, UniProt P43403).
T3 sequence (P43403 whole entry): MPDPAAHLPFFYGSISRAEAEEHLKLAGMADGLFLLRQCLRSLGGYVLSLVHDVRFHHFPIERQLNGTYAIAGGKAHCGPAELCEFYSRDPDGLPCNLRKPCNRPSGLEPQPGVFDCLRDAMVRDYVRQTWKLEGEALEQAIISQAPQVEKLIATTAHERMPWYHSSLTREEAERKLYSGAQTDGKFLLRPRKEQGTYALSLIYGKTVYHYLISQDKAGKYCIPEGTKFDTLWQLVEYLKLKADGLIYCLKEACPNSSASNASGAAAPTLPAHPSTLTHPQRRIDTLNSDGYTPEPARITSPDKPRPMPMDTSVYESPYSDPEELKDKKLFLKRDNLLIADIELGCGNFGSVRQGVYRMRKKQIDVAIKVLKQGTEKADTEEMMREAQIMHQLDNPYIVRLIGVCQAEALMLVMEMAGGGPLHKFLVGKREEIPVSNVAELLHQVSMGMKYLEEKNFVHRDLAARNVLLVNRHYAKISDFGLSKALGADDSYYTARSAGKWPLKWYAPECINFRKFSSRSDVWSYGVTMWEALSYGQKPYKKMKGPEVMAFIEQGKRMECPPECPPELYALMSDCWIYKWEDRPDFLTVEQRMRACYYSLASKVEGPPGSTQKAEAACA
The data set can be described thus: Inhibition of ZAP70 (unknown origin) in presence of gamma33-ATP.

The nature of data set [11]: Antiproliferative activity against human MV411 cells incubated for 72 hrs by cell titer-glo assay. The data set is classed as functional, cell-based. The settings on record: MV4-11, 72 h.
Data set [12] can be described thus: Half life in Sprague-Dawley rat at 10 mg/kg, iv administered as single dose by LC-MS/MS analysis. The class given is ADME, organism-based. To be noted: in vivo.
Data set [13] can be described thus: AUC (infinity) in Harlan nu/nu mouse at 10 mg/kg, iv administered as single dose by LC-MS/MS analysis. More on the design: dose 10 mg/kg, time infinity, route intravenous. The data set is classed as ADME, organism-based. To be noted: in vivo.
The nature of data set [14]: Half life in Beagle dog at 10 mg/kg, iv administered as single dose by LC-MS/MS analysis. The data set is classed as ADME, organism-based, Canis lupus familiaris. The settings on record: in vivo.

Data on 1 compound can be found in ChEMBL document CHEMBL3804811 (J Med Chem, 2016).

Activity calls are given as the source filed them. No cut-off for these calls is given here.

Serine/threonine-protein kinase NIM1, sequence (Q8IY84 whole entry): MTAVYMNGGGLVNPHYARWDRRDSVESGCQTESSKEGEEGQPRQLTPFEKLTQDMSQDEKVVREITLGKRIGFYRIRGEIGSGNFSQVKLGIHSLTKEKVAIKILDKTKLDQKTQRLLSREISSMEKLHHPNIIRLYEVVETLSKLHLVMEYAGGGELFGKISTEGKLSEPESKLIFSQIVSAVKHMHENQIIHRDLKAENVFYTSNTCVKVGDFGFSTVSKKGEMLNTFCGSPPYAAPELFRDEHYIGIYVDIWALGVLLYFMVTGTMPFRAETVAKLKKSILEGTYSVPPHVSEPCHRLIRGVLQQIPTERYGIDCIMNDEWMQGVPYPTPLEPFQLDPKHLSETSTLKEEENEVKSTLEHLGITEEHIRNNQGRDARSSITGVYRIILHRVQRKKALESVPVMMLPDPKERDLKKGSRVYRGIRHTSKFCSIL

`CN1CCN(c2ccc(C(=O)Nc3n[nH]c4ccc(Cc5cc(F)cc(F)c5)cc34)c(NC3CCOCC3)c2)CC1` [ENTRECTINIB]: the AUC(0-inf) in [1] turned out to be 15.1 µM·h; in data set [13] it was 19.6 µM·h. Further, the IC50 is over 10 µM in data set [2]; 0.024 µM in data set [3]; 0.041 µM in [6]; over 10 µM in data set [7]; 0.349 µM in [9]; over 10 µM in data set [10]. The compound further came in with an IC50 in data set [11] of 0.081 µM. Moreover, the TGI result in [4] is “Active”. This compound also came in with a Cmax in [5] of 0.6 µM. Besides, the concentration at 6 h in [8] stood at 4.57 µM. In addition, the half-life was 3.5 h in data set [12] and 11.9 h in data set [14].
